Experimental data published in patent US12655144B2, “Method for producing heterocyclic compound” (TAKEDA PHARMACEUTICAL COMPANY LIMITED, priority 2020, dated 2026).

Assays:
[1] = tested on: OCI-Ly3 cells; assay: Measurement of growth inhibitory activity using OCI-Ly3 cells; type: cell-based; conditions: Homo sapiens, 144 h, 3 μM compound, 6 days, Cell Titer-Glo, read-out: Cell growth inhibition rate (%) at 3 μM compound
Description: Measurement of Growth Inhibitory Activity Using OCI-Ly3 Cells
OCI-Ly3 cells were seeded in a cell culture medium IMDM (Fujifilm Wako Pure Chemical Corporation) containing 20% FCS (fetal calf serum, Thermo Fisher Scientific) and monothioglycerol (Fujifilm Wako Pure Chemical Corporation) so as to be at 1.25×10^3 cells/well on a 96-well plate. […] Subsequently, the luminescence value was measured with Envision (PerkinElmer) on the day of seeding. […] Subsequently, the luminescence value was measured in the same manner. The inhibition rate (%) of the test compound on OCI-Ly3 cell growth was calculated by the following formula. Cell growth inhibition rate (%)=(1−(Luminescent value on day 6 of test compound treatment−Luminescent value before test compound treatment)/(Luminescent value on day 6 without compound addition−Luminescent value before compound treatment))×100

[2] = tested on: OCI-Ly3 subcutaneously transplanted tumor; assay: Antitumor effect on OCI-Ly3 cell-bearing cancer model; type: in vivo, NOG female mice; conditions: 10 mg/kg orally twice daily for 3 weeks; average tumor volume increase ratio vs control; NOG mice bearing OCI-Ly3
Description: Antitumor Effect on OCI-Ly3 Cell-Bearing Cancer Model Human diffuse large-cell B-cell lymphoma cells OCI-Ly3 (DSMZ, German Collection of Microorganisms and Cell Cultures) were suspended in a Matrigel (BD Biosciences):HBSS (Thermo Fisher Scientific)=1:1 solution, and 1×10^7 cells were transplanted subcutaneously into the abdomen of NOG female mice (CLEA Japan, Inc.). The tumor diameter of the engrafted tumor was measured, and the tumor volume was calculated by the following formula. Tumor volume=major axis×minor axis×minor axis×(1/2) Individuals with the engrafted tumor having a tumor volume of about 120 mm^3 were selected, and 6 animals per group were used in the experiment. A suspension of the test compound in 0.5% methylcellulose solution (Fujifilm Wako Pure Chemical Corporation) was orally administered at a dose of 10 mg/kg (10 mL/kg) twice daily for 3 weeks. The tumor volume was measured on the day before the start of administration and every 3 to 4 days over time, and the tumor diameter was finally measured the day after the end of administration for 21 days to calculate the tumor volume. The tumor growth of the test compound-administered group compared with the control-administered group was calculated by the following formula as an average tumor volume increase ratio T/C. […]

Row | Compound | inhibition at 3 µM [1] [%] | T/C (%) [2] [%]
1 | CO[C@@H](C)c1c(NC(=O)Nc2cnc(-n3nccn3)c(C(F)(F)F)c2)cnc2ccc(Cl)nc12 [Compound X1, (S)—N-(6-Chloro-4-(1-methoxyethyl)-1,5-naphthyridine-3-yl)-N′-(6-(2H-1,2,3-triazole-2-yl)-5-(trifluoromethyl)pyridine-3-yl)urea] | 97 | 2.0
2 | CO[C@@H](C)c1c(NC(=O)Nc2cnc(-n3nccn3)c(C(F)(F)F)c2)cnc2ccc(C)nc12 [Compound X2, (S)—N-(4-(1-methoxyethyl)-6-methyl-1,5-naphthyridine-3-yl)-N′-(6-(2H-1,2,3-triazole-2-yl)-5-(trifluoromethyl)pyridine-3-yl)urea] | 99 | 38.7
